Measured values as given in patent US5707966A, “Antithrombotic agents” (Eli Lilly and Company, priority 1995, dated 1998).
Counter-ions that a name gives are not always drawn. Like-named read-outs stand apart in the source and are kept apart here.

Assays:
Format in all cases: biochemical
Human Thrombin = Human Thrombin (Homo sapiens, UniProt P00734); assay: Inhibition of amidase activity of thrombin (Kass)
Human plasma [1] = assay: Human plasma anticoagulation, thrombin time (TT); details: concentration required to double the thrombin time, linear extrapolation
Protocol: (§1) Dog plasma and rat plasma is obtained from conscious mixed-breed hounds (either sex, Hazelton-LRE, Kalamazoo, Mich., U.S.A.) or from anesthetized male Sprague-Dawley rats (Harlan Sprague-Dawley, Inc., Indianapolis, Ind., U.S.A.) by venipuncture into 3.8 percent citrate. Fibrinogen is prepared from in-date ACD human blood as the fraction I-2 according to previous procedures and specifications. […] Human fibrinogen is also purchased as 98 percent pure/plasmin free from American Diagnostica, Greenwich, Conn. Coagulation reagents ACTIN, Thromboplastin, and Human plasma are from Baxter Healthcare Corp., Dade Division, Miami, Fla. Bovine thrombin from Parke-Davis ([…], Mich.) is used for coagulation assays in plasma.
(§2) Coagulation assay procedures are as previously described. […] A CoAScreener coagulation instrument (American LABor, Inc.) is used for all coagulation assay measurements. The prothrombin time (PT) is measured by adding 0.05 mL saline and 0.05 mL Thromboplastin-C reagent to 0.05 mL test plasma. The activated partial thromboplastin time (APTT) is measured by incubation of 0.05 mL test plasma with 0.05 mL Actin reagent for 120 seconds followed by 0.05 mL CaCl2 (0.02M). The thrombin time (TT) is measured by adding 0.05 mL saline and 0.05 mL thrombin (10 NIH units/mL) to 0.05 mL test plasma. The compounds of Formula I are added to human or animal plasma over a wide range of concentrations to determine prolongation effects on the APTT, PT, and TT assays. Linear extrapolations are performed to estimate the concentrations required to double the clotting time for each assay.

Human plasma [2] = assay: Human plasma anticoagulation, prothrombin time (PT); details: concentration required to double the PT, linear extrapolation
Protocol: as §1, §2

Human plasma [3] = assay: Human plasma anticoagulation, activated partial thromboplastin time (APTT); details: concentration required to double the APTT, linear extrapolation
Protocol: as §1, §2

Bovine trypsin = biological target: T1, Bovine trypsin (Bos taurus, UniProt P00760); assay: Kass with trypsin, chromogenic substrate; details: substrate N-Benzoyl-Phe-Val-Arg-p-nitroanilide
T1 construct: Bovine trypsin is purchased; purchased Worthington Biochemicals, Freehold, N.J
T1 sequence (P00760 24-246): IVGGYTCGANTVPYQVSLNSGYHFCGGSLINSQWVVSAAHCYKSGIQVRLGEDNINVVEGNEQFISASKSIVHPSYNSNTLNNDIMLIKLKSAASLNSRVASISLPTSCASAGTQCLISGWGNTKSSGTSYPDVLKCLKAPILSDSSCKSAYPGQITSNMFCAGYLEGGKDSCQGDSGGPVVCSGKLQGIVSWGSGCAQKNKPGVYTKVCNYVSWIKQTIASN
Protocol: By substantially following the procedures described above for human thrombin, and using other human blood coagulation system serine proteases and proteases of the fibrinolytic system with the appropriate chromogenic substrates, identified below, selectivity of the compounds of the present invention with respect to the coagulation factor serine proteases and with respect to the fibrinolytic system serine proteases are evaluated as well as their substantial lack of interference with serine proteases of the fibrinolytic system. Thrombin inhibitors preferably should spare fibrinolysis induced by urokinase, tissue plasminogen activator (t-PA) and streptokinase. This would be important to the therapeutic use of such agents as an adjunct to streptokinase, t-PA or urokinase thrombolytic therapy and to the use of such agents as an endogenous fibrinolysis-sparing (with respect to t-PA and urokinase) antithrombotic agent. In addition to the lack of interference with the amidase activity of the fibrinolytic proteases, such fibrinolytic system sparing can be studied by the use of human plasma clots and their lysis by the respective fibrinolytic plasminogen activators.
Human factors X, Xa, IXa, XIa, and XIIa are purchased from Enzyme Research Laboratories, South Bend, Ind.; human urokinase from Leo Pharmaceuticals, Denmark; and recombinant activated Protein C (aPC) is prepared at Eli Lilly and Co. substantially according to U.S. Patent No. 4,981,952. Chromogenic substrates: N-Benzoyl-Ile-Glu-Gly-Arg-p-nitroanilide (for factor Xa); N-Cbz-D-Arg-Gly-Arg-p-nitroanilide (for factor IXa assay as the factor Xa substrate); Pyroglutamyl-Pro-Arg-p-nitroanilide (for Factor XIa and for aPC); H-D-Pro-Phe-Arg-p-nitroanilide (for factor XIIa); and Pyroglutamyl-Gly-Arg-p-nitroanilide (for urokinase); are purchased from KabiVitrum, Stockholm, Sweden, or from Midwest Biotech, Fishers, Ind. Bovine trypsin is purchased from Worthington Biochemicals, Freehold, N.J., and human plasma kallikrein from Kabi Vitrum, Stockholm, Sweden. Chromogenic substrate H-D-Pro-Phe-Arg-p-nitroanilide for plasma kallikrein is purchased from Kabi Vitrum, Stockholm, Sweden. N-Benzoyl-Phe-Val-Arg-p-nitroanilide, the substrate for human thrombin and for trypsin, is synthesized according to procedures described above for the compounds of the present invention, using known methods of peptide coupling from commercially available reactants or purchased from Midwest Biotech, Fishers, Ind.

[4] = mean over a range of concentrations, […]

Row | SMILES | Kass Human Thrombin (Human Thrombin; [4]) | Human Plasma Anticoagulation 2× Clotting time TT (Human plasma [1]) | Human Plasma Anticoagulation 2× Clotting time PT (Human plasma [2]) | Human Plasma Anticoagulation 2× Clotting time APTT (Human plasma [3]) | Kass Trypsin (Bovine trypsin) | Kass Human Thrombin (Human Thrombin)
1 | CCS(=O)(=O)N[C@H](CC1CCCCC1)C(=O)N1CCC[C@H]1C(=O)NCc1ccc(CN)cc1 [Example 81, EtSO2 -D-Cha-Pro-4-NHCH2 C6 H4 CH2 NH2.HCl] | 5.3 × 10^6 (L/mole) | 110 ng/mL | 2,700 ng/mL | 1,500 ng/mL | 2.1 × 10^6 (L/mole) | –
2 | NCC1CCC(CNC(=O)[C@@H]2CCCN2C(=O)[C@@H](CC2CCCCC2)NCC(=O)O)CC1 (stereo partly drawn) [Example 79, HO2 CCH2 -D-Cha-Pro-4-NHCH2 C6 H10 CH2 NH2.HCl] | 2.0 × 10^6 (L/mole) | 140 ng/mL | 2,400 ng/mL | 1,700 ng/mL | 0.24 × 10^6 (L/mole) | –
3 | N=C(N)c1cc(F)c(CNC(=O)[C@@H]2CCCN2C(=O)[C@@H](CC2CCCCC2)NCC(=O)O)c(F)c1 [Example 72, HO2 CCH2 -D-Cha-Pro-4-NHCH2 -3,5-F2 -benzamidine.HCl] | 2,300 × 10^6 (L/mole) | 1 ng/mL | 160 ng/mL | 160 ng/mL | 280 × 10^6 (L/mole) | –
4 | N=C(N)c1ccc(CNC(=O)[C@@H]2CCCN2C(=O)[C@@H](CC2CCCCC2)NCC(=O)O)c(F)c1 [Example 71, HO2 CCH2 -D-Cha-Pro-4-NHCH2 -3-F-benzamidine.HCl] | 1,400 × 10^6 (L/mole) | 1 ng/mL | 150 ng/mL | 89 ng/mL | 240 × 10^6 (L/mole) | –
5 | CS(=O)(=O)CC(=O)N[C@H](CC1CCCCC1)C(=O)N1CCC[C@H]1C(=O)NCc1ccc(C(=N)N)cc1 [Example 92, MeSO2 CH2 CO-D-Cha-Pro-p-NHCH2 C6 H4 C(NH)NH2.HCl] | 130 × 10^6 (L/mole) | 8.9 ng/mL | 340 ng/mL | 210 ng/mL | 7.7 × 10^6 (L/mole) | –
6 | N=C(N)c1ccc(CNC(=O)[C@@H]2CCCN2C(=O)[C@@H](CC2CCCCC2)NCC(=O)O)nc1 [Example 66, HO2 CCH2 -D-Cha-Pro-2-NHCH2 -5-amidinopyridine.HCl] | 120 × 10^6 (L/mole) | 7.9 ng/mL | 270 ng/mL | 180 ng/mL | 4.6 × 10^6 (L/mole) | –
7 | NCc1ccc(CNC(=O)[C@@H]2CCCN2C(=O)[C@@H](CC2CCCCC2)NCC(=O)O)cc1 [Example 78, HO2 CCH2 -D-Cha-pro-4-NHCH2 C6 H4 CH2 NH2.HCl] | – | 46 ng/mL | 760 ng/mL | 430 ng/mL | 8.6 × 10^6 (L/mole) | 11
8 | CCS(=O)(=O)N[C@H](Cc1ccccc1)C(=O)N1CCC[C@H]1C(=O)NCCc1cccc(NC(=N)N)c1 [Example 37, EtSO2 -D-Phe-Pro-m-NHCH2 CH2 C6 H4 NHC(NH)NH2.HCl] | 0.02 × 10^6 (L/mole) | > 9,000 ng/mL | > 9,000 ng/mL | > 9,000 ng/mL | < 0.009 × 10^6 (L/mole) | –
